Experimental data: patent US6608086B2, “Dihydropyridines and new uses thereof” (Synaptic Pharmaceutical Corporation, priority 1993, dated 2003)
Counter-ions that a name gives are not always drawn.

Tests used:
human prostatic tissue = assay: In vitro human prostate model: block of phenylephrine-induced contraction of human prostatic tissue; format: cell-based
Description: The protocol for these experiments is given below.
Functional Properties of α1 Antagonists in the Human Prostate
The efficacy of α1 adrenergic antagonists for the treatment of benign prostatic hyperplasia (BPH) is related to their ability to elicit relaxation of prostate smooth muscle. An index of this efficacy can be obtained by determining the potency of al antagonists to antagonize the contraction of human prostatic tissue induced by an α1 agonist “in vitro”. Furthermore, by comparing the potency of subtype selective α1 antagonists in binding assays using human α1 receptors with their potency to inhibit agonist-induced smooth muscle contraction, it is possible to determine which of the α1 adrenergic receptor subtypes is involved in the contraction of prostate smooth muscle.
Prostatic adenomas were obtained at the time of surgery from patients with symptomatic BPH. […] The baths were maintained at 37° C. and continuously oxygenated with 5% CO2 and 95% O2. Isometric tension was measured with a Grass Instrument FT03 force transducer interfaced with a computer. Tissue strips were contracted with varying concentrations of phenylephrine after incubating for 20 minutes in the absence and presence of at least three different concentrations of antagonist. Dose-response curves for phenylephrine were constructed, and the antagonist potency (pA2) was estimated by the dose-ratio method. The concentration of some antagonists in the tissue bath was assessed by measuring the displacement of [3H]prazosin by aliquots of the bath medium, using membrane preparations of the cloned human α1C receptor. This control was necessary to account for losses of antagonist due to adsorption to the tissue bath and/or metabolism during the time the antagonists were equilibrated with the prostate tissue.

canine prostate = assay: In vivo dog prostate model: inhibition of phenylephrine-induced increase in urethral pressure in anesthetized dogs
Description: Protocol for In Vivo Evaluation of Compounds in Canine Prostate
Adult male mongrel dogs more than one year of age were chosen for the model. After induction of general anesthesia using sodium pentobarbital (25 mg/Kg i.v.), the animals were intubated and allowed to breathe spontaneously. An arterial catheter was inserted via the femoral artery to monitor blood pressure and i.v. line was inserted into the leg for fluid and drug administration. A constant saline infusion was maintained at 40 to 50 mL/h. Next, a seven cm lower abdominal incision was made one cm lateral to the penis.
The bladder, prostate and a short segment of urethra were identified and isolated, without damage to the nerves or blood vessels. A cystotomy incision was made through which the pressure catheter was inserted and positioned in the prostatic urethra. The cystotomy was not closed, but the wound edges were sutured to stop bleeding. The tip of the catheter was positioned just distal to the prostate and secured in place with an O-silk tie around the urethra. A second holding suture at the bladder neck secured the catheter in place.
Fluid, either water or saline, was pumped by a Harvard infusion pump at 0.1 mL/min through a Gould pressure transducer into the catheter. The fluid exists at a port in the catheter which is in the prostatic urethra. Occlusion of the port, by contraction of the prostate, blocks the flow and a pressure wave is created. This pressure is transmitted back through the catheter to the transducer which is attached to a Gould recorder. Squeezing the prostate gland caused an increase in urethral pressure which verified the correct position in the urethra.
The compounds were tested as follows: A dose response curve was first generated for phenylephrine alone, in doses ranging from one μg/Kg to 50 μg/Kg. The absolute rise in urethral pressure was recorded for each dose and the next dose given when the urethral pressure returned to baseline. Phenylephrine dose response curves were generated in all animals tested. Increasing doses of compounds were then given, and the phenylephrine dose response curve repeated in the prepense of each dose of the compound. No animal received more than one compound; four animals were used to test each compound. To test for tachyphylaxis, four separate dogs were challenged with repeated phenylephrine doses for six hrs, the usual length of each experiment. From the dose-effect data, the inhibition constant (Ki) and the median-effect dose (ED50) were calculated. Both the Ki and ED50 values given are calculated by using microcomputer software and an IBM-PC.

| pKi (human prostatic tissue; In Vitro Human Prostate Model, phenylephrine-induced contraction) | Compound | Ki (canine prostate; In Vivo Dog Prostate Model, phenylephrine-induced contraction, urethral pressure) [nmol/kg] | pA2 (human prostatic tissue; block of phenylephrine-induced contraction of human prostate) | Urethral Pressure K i (canine prostate; inhibition of phenylephrine-induced increases in urethral pressure, anesthetized dogs) [nmol/kg] |
| --- | --- | --- | --- | --- |
| 8.07 ± 0.13 | COC(=O)C1=C(C)NC(C)=C(C(=O)NCCCN2CCC(c3ccccc3)CC2)C1c1ccc([N+](=O)[O-])cc1 (racemic) [(±)-45, (±)-1,4-Dihydro-3-methoxycarbonyl-2,6-dimethyl-4-(4-nitrophenyl)-5-{N-[3-(4-phenylpiperidin-1-yl)propyl]}carboxamidopyridine hydrochloride hemihydrate] | 12 | – | – |
| – | CNC(=O)C1=C(C)NC(C)=C(C(=O)NCCCN2CCC(c3ccccc3)(c3ccccc3)CC2)C1c1ccc([N+](=O)[O-])cc1 (stereo not shown) [Example 38, 1,4-Dihydro-2,6-dimethyl-5-(N-methyl)carboxamido-4-(4-nitrophenyl)-3-{N-[3-(4,4-diphenylpiperidin-1-yl)propyl]}carboxamidopyridine] | – | 8.98 ± 0.06 | 8 ± 1.5 |
